We go through 5 molecules from ChEMBL document CHEMBL1681639, “Discovery of substituted 3-(phenylamino)benzoic acids as potent and selective inhibitors of type 5 17β-hydroxysteroid dehydrogenase (AKR1C3)” (Bioorg Med Chem Lett, 2011).

In this assay the target is T1, Aldo-keto reductase family 1 member C3 (Homo sapiens, UniProt P42330).
T1 sequence (P42330 whole entry): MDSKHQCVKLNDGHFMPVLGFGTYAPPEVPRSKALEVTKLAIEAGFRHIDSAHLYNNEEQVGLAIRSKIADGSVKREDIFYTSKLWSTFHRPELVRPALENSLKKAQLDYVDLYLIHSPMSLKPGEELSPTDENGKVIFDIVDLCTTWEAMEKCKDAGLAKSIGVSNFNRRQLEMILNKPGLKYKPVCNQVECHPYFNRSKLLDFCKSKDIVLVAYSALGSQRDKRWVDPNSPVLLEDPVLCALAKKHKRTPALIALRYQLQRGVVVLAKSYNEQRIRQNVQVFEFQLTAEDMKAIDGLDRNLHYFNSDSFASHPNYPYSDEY
Nature of the assay: Inhibition of AKR1C3 by fluorimetric method.
Take `O=C(O)c1cccc(Nc2ccc(C(F)(F)F)cc2)c1`: 62 nM corresponded to half-maximal inhibition (IC50). This lies in the double-digit nanomolar range. Consider `O=C(O)c1cccc(Nc2ccc(Cl)cc2)c1`, for which the IC50 – broadly, the point on the concentration scale where inhibition reaches its midpoint – came to 130 nM. The figure for `COc1ccc(Nc2cccc(C(=O)O)c2)cc1` is 490 nM; for `Cc1ccc(Nc2cccc(C(=O)O)c2)cc1` it is 700 nM. `O=C(O)c1ccccc1Nc1cccc(C(F)(F)F)c1` [FLUFENAMIC ACID] registered an IC50 of 51 nM.
